Source: paper PMC3437492 (British Journal of Pharmacology, 2012)
Several values for one entry are separate records, joined by “and”; a condition that tells them apart may be missing. Equal entries are not always repeated. Where two headings read alike, the source gives them in different places.

What was measured:
[1] = target: T1, choline/ethanolamine phosphotransferase (CEPT) (Plasmodium falciparum, UniProt C6KTB9)
T1 sequence (C6KTB9 1-391): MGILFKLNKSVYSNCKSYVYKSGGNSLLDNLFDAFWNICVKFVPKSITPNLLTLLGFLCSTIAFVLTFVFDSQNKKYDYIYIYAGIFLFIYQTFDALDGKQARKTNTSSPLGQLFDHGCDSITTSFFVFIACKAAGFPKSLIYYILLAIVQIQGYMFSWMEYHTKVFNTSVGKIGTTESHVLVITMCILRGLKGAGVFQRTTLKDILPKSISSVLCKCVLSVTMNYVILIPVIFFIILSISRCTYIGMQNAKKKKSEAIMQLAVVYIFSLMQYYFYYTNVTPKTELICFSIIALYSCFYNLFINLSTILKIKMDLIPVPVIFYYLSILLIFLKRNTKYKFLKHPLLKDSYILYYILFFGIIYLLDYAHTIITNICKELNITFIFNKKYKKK

[2] = system: NA biosynthesis in P. falciparum-infected erythrocytes; experiment: Effect on [3H]-hypoxanthine incorporation into nucleic acids; type: cell-based; conditions: for IC50: Plasmodium falciparum, Erythrocyte
[3] = system: PE biosynthesis in P. falciparum-infected erythrocytes; experiment: Effect on [3H]-ethanolamine incorporation into PL; type: cell-based; conditions: for IC50: read-out: PE50
choline kinase (CK) [4] = target: T2, choline kinase (CK) (Plasmodium falciparum, UniProt Q8IM71); experiment: biochemical
T2 sequence (Q8IM71 1-440): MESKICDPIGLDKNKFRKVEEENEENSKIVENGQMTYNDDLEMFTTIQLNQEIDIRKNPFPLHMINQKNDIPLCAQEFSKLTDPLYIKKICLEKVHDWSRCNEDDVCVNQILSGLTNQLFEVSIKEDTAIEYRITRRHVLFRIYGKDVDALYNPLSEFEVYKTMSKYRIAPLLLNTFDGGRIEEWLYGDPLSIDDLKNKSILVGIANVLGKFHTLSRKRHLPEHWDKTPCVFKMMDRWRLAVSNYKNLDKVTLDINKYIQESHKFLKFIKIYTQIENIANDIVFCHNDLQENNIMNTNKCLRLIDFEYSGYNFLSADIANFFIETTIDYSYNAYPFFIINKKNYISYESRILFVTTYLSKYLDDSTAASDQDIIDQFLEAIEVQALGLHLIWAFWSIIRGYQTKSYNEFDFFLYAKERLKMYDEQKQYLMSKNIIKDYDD

[5] = system: furosemide-sensitive NPP of P. falciparum IRBC; experiment: Albitiazolium entry into P. falciparum-infected erythrocytes; type: cell-based
[6] = system: parasite choline transporter (poly-specific cation transporter); experiment: Choline entry into isolated; type: cell-based, P. falciparum
P. falciparum-IRBC = conditions: ref Wein et al., cited from earlier work
[7] = system: parasite poly-specific cation carrier; conditions: for Type of inhibition: inhibition of albitiazolium entry
choline kinase (CK) [8] = target: T2, choline kinase (CK)
normal erythrocytes = experiment: Albitiazolium entry into normal erythrocytes; type: cell-based, human; conditions: 30 µM albitiazolium, 8 min, 37°C
[9] = target: CTP:phosphocholine cytidylyltransferase (CCT) (Plasmodium falciparum, UniProt Q8IEE9); experiment: CCT assay; type: biochemical
[10] = system: P. falciparum-infected erythrocytes; experiment: Total choline entry into P. falciparum-infected erythrocytes; type: cell-based; conditions: no furosemide
[11] = system: P. falciparum asexual blood stages; conditions: ref Vial et al., 2004; cited from earlier work
P. falciparum 3D7 strain = type: cell-based
human plasma-proteins = conditions: at 20 ng·mL^−1; no saturation until 5000 ng·mL^−1; ref unpublished observations; cited from earlier work
[12] = system: erythrocyte choline carrier; experiment: Carrier-mediated choline entry into IRBC in the presence of 150 µM furosemide; type: cell-based, human
[13] = target: T1, choline/ethanolamine phosphotransferase (CEPT); experiment: biochemical; conditions: 0.5 h, read-out: Concentration for complete inhibition
[14] = system: erythrocyte choline carrier; conditions: normal erythrocytes, 37°C
[15] = substrate: C[N+](C)(C)CCO; experiment: cells, lysate or membranes named; conditions: other: CK; saturating ATP; pH 7.9

Sequence of CTP:phosphocholine cytidylyltransferase (CCT) (Q8IEE9 1-896): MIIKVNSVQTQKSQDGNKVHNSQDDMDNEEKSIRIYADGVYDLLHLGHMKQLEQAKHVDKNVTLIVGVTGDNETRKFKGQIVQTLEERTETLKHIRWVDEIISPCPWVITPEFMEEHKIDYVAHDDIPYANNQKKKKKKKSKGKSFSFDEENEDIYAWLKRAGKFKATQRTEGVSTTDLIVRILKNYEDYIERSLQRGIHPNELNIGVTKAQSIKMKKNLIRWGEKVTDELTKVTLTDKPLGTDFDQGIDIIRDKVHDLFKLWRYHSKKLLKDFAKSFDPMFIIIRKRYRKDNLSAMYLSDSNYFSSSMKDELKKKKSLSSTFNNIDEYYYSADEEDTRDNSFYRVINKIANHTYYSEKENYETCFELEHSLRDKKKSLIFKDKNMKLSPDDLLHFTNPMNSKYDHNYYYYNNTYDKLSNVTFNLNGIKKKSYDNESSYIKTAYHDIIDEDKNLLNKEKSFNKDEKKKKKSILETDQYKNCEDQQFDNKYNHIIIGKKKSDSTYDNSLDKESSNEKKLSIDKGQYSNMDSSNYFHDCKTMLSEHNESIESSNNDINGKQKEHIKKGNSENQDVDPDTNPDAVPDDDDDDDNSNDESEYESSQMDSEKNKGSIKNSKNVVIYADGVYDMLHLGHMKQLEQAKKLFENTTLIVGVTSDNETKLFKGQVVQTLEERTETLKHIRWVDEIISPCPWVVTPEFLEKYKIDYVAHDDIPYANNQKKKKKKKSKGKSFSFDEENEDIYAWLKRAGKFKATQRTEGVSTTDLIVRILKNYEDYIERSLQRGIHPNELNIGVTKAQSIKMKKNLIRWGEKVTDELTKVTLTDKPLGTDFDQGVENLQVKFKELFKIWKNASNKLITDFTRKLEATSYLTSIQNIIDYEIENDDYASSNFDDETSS

Molecule: C[N+](C)(C)CCOP(=O)(O)OP(=O)([O-])OC[C@H]1O[C@@H](n2ccc(N)nc2=O)[C@H](O)[C@@H]1O [CDP–choline]
- Vmax [1]: 17.0 ± 1.5 pmol per 10^7 IRBC·min^−1

Molecule: Cc1c(CCO)sc[n+]1CCCCCCCCCCCC[n+]1csc(CCO)c1C.[Br-].[Br-] [albitiazolium, 3,3′-(dodecane-1,12-diyl)bis[5-(2-hydroxyethyl)-4-methyl-1,3-thiazol-3-ium] dibromide]
- IC50 ([2]; 3 h, read-out: NA50, ring stage, [3H]-hypoxanthine, 3 h): 240 µM
- IC50 ([2]; 3 h, read-out: NA50, schizont stage, [3H]-hypoxanthine, 3 h): 160 µM
- IC50 ([2]; 3 h, read-out: NA50, trophozoite stage, [3H]-hypoxanthine, 3 h): 340 µM
- IC50 ([2]; read-out: NA50, range over the three stages): 160 to 340 µM
- Concentrations affecting NA biosynthesis relative to PC50 values ([2]; higher than the PC50, three stages): 13- to 80 fold
- IC50 ([3]; Plasmodium falciparum, Erythrocyte, 3 h): > 1000 µM
- IC50 ([3]; Plasmodium falciparum, Erythrocyte): > 1000 µM
- IC50 ([3]; schizont stage, 2 µM [3H]-ethanolamine, 3 h): > 1000 µM
- IC50 ([3]; trophozoite stage, 2 µM [3H]-ethanolamine, 3 h): > 1000 µM
- Effect on ethanolamine incorporation ([3]; up to 10 µM): no significant effect
- IC50 (choline kinase (CK) [4]): 1500 µM
- Vmax of albitiazolium entry ([5]; 8 min, 37°C): 47.9 ± 4.9 pmol per 10^7 IRBC·min^−1
- Km ([5]; read-out: apparent Km of albitiazolium entry, 8 min, 37°C): 20.6 ± 4.3 µM
- Concentration for complete inhibition of choline entry ([6]; 15 µM choline): 10 µM
- Type of inhibition ([6]; inhibition of choline entry): Competitive
- IC50 ([6]; read-out: IC50 on choline entry into parasites, 15 µM choline, 10 min): 2.3 ± 0.2 µM
- Ki ([6]; read-out: Ki on choline entry into parasites, Lineweaver–Burk): 0.53 µM
- Accumulation in P. falciparum-IRBC (P. falciparum-IRBC; external concentration of 100 nM, unpublished observations): 400 fold
- cellular accumulation ratio (CAR) (P. falciparum-IRBC; infected erythrocytes at mature stages, in preparation): ~400
- Vmax of albitiazolium entry ([7]; free parasites (Table 2)): 6.1 ± 1.1 pmol per 10^7 cells·min^−1
- Vmax of albitiazolium entry ([7]; isolated parasites, 10 min, 37°C): 6.1 ± 1.1 pmol per 10^7 parasites·min^−1
- Concentration for complete inhibition (choline kinase (CK) [8]): 100 mM
- Albitiazolium entry rate (normal erythrocytes): lower than 0.01 pmol per 10^7 RBC·min^−1
- IC100 ([9]; 0.5 h, read-out: Concentration for complete inhibition): 100000 µM
- Concentration from which choline entry is significantly inhibited ([10]; 15 µM choline): 4 µM
- Concentration for complete inhibition of choline entry ([10]; 15 µM choline, not reached): > 36 µM
- Concentration effective at treating malaria in vitro [11]: ~10 nM
- Type of interaction with choline (P. falciparum 3D7 strain; combination with choline): highly antagonized
- Type of interaction with ethanolamine (P. falciparum 3D7 strain; combination with ethanolamine): additive effect
- Type of interaction with serine (P. falciparum 3D7 strain; combination with serine): additive effect
- Decrease of antimalarial activity (P. falciparum 3D7 strain; in the presence of 6 mM choline): 28 fold
- Binding to human plasma-proteins (human plasma-proteins): 33%
- Concentration for complete inhibition of choline entry ([12]; 15 µM choline, 150 µM furosemide): 12 µM
- Type of inhibition ([12]; 150 µM furosemide): competitive inhibition
- Ki ([12]; read-out: Ki on choline entry, 150 µM furosemide, Lineweaver–Burk): 3.1 µM
- IC100 [13]: 100000 µM

Molecule: C[N+](C)(C)CCO [choline]
- Vmax of choline entry [14]: 0.43 ± 0.05 pmol per 10^7 RBC·min^−1
- Km ([14]; read-out: Km of choline entry, n= 4): 12.2 ± 2.2 µM
- Vmax of parasite choline entry ([6]; Table 3): 23.3 ± 4.5 pmol per 10^7 IRBC·min^−1
- Vmax of choline entry ([6]; free parasites (Table 2)): 23.3 ± 4.5 pmol per 10^7 cells·min^−1
- Km ([6]; read-out: Km of choline entry, saponin-freed parasites, 10 min, 37°C): 18.5 ± 3.3 µM
- Type of inhibition [7]: competitive inhibition
- Type of inhibition ([7]; listed as Choline): Competitive
- Ki ([7]; read-out: Ki on albitiazolium entry into parasites, Lineweaver–Burk): 321 µM
- Vmax (choline kinase (CK) [8]): 63.3 ± 11.6 pmol per 10^7 IRBC·min^−1
- Choline uptake rate ([10]; external concentration of 80 µM choline): 1.5 pmol per 10^7 IRBC·min^−1
- Vmax of choline entry ([12]; IRBC with 150 µM furosemide): 0.69 ± 0.23 pmol per 10^7 IRBC·min^−1 and 0.7 ± 0.2 pmol per 10^7 IRBC·min^−1
- Km ([12]; read-out: Km of choline entry, IRBC with 150 µM furosemide): 11 ± 2.4 µM

Molecule: N=C(N)c1ccc(OCCCCCOc2ccc(C(=N)N)cc2)cc1 [pentamidine, reference compound]
- Effect on NA and PC synthesis ([2]; same conditions as albitiazolium, data not shown): affected primarily NA synthesis and not PC synthesis

Molecule: C[N+](C)(C)CCOP(=O)(O)O [phosphocholine]
- Vmax ([9]; CCT): 5.2 ± 1.4 pmol per 10^7 IRBC·min^−1
- Km ([9]; read-out: Km for choline-containing substrate, CCT, saturating CTP): 511 ± 24.8 µM

B1: choline kinase (CK) (Plasmodium falciparum 3D7) (protein)
chain: T2 sequence (Q8IM71 1-440)
- Km [15]: 31.2 ± 4.1 µM
